Like-named read-outs stand apart in the source and are kept apart here.
Legend:
[1] = system: NF-κB pathway (SEAP) in THP1-Dual cells; assay: THP-1 Dual cell SEAP assay (L18-MDP stimulated); assay type: cell-based; conditions: Homo sapiens, THP1-Dual, read-out: NFkB THP1 IC50
[2] = target: GST-RIPK2 fusion protein (human RIPK2 amino acids 1-310) (Homo sapiens (Human), UniProt O43353); assay: RIPK2 binding competition assay (TR-FRET, Tracer 199)
[3] = read-out: RIPK2 IC50, RIPK2 binding competition assay

Chain of GST-RIPK2 fusion protein (human RIPK2 amino acids 1-310) (O43353 1-310): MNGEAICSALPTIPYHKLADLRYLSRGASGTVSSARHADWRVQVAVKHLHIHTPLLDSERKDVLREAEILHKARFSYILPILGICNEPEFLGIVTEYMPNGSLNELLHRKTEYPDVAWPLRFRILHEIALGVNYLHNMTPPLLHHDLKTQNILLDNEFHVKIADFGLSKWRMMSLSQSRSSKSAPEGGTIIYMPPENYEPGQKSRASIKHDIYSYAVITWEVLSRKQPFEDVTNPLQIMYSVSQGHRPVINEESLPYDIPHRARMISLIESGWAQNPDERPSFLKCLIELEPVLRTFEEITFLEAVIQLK

| SMILES | IC50 [1] | IC50 [2] | IC50 [2, 3] |
| --- | --- | --- | --- |
| COc1cc2ncc(-c3ccc(OC(F)F)c(N)c3)n2cc1S(=O)(=O)C(C)(C)C [Example 39, 5-(6-(tert-butylsulfonyl)-7-methoxyimidazo[1,2-a]pyridin-3-yl)-2-(difluoromethoxy)aniline] | 50 to 250 nM | 2.5 to 20 nM | – |
| COc1cc2ncc(-c3cc(F)c(N)c(N)c3F)n2cc1S(=O)(=O)C(C)(C)C [Example 40, 4-(6-(tert-butylsulfonyl)-7-methoxyimidazo[1,2-a]pyridin-3-yl)-3,6-difluorobenzene-1,2-diamine] | 250 to 1000 nM | 2.5 to 20 nM | – |
| COc1cc2ncc(-c3cc(N)cc(C#N)c3)n2cc1S(=O)(=O)C(C)(C)C [Example 41, 3-amino-5-(6-(tert-butylsulfonyl)-7-methoxyimidazo[1,2-a]pyridin-3-yl)benzonitrile] | 50 to 250 nM | 2.5 to 20 nM | – |
| COc1cc2ncc(-c3cc(N)cc(OC(F)F)c3)n2cc1S(=O)(=O)C(C)(C)C [Example 42, 3-(6-(tert-butylsulfonyl)-7-methoxyimidazo[1,2-a]pyridin-3-yl)-5-(difluoromethoxy)aniline] | 250 to 1000 nM | 2.5 to 20 nM | – |
| COc1cc2ncc(-c3cc(N)c(F)c(OC)c3)n2cc1S(=O)(=O)C(C)(C)C [Example 43, 5-(6-(tert-butylsulfonyl)-7-methoxyimidazo[1,2-a]pyridin-3-yl)-2-fluoro-3-methoxyaniline] | 50 to 250 nM | 2.5 to 20 nM | – |
| COc1cc2ncc(-c3cc(N)c(F)c(F)c3)n2cc1S(=O)(=O)C(C)(C)C [Example 44, 5-(6-(tert-butylsulfonyl)-7-methoxyimidazo[1,2-a]pyridin-3-yl)-2,3-difluoroaniline] | 50 to 250 nM | 2.5 to 20 nM | – |
| COc1ccn2c(-c3cc(F)nc(F)c3)cnc2c1 [Example 45, 3-(2,6-difluoropyridin-4-yl)-7-methoxyimidazo[1,2-a]pyridine] | > 1000 nM | – | > 20 nM |
| COc1cc(N)cc(-c2cnc3cc(OC)c(S(=O)(=O)C(C)(C)C)cn23)c1 [Example 46, 3-(6-(tert-butylsulfonyl)-7-methoxyimidazo[1,2-a]pyridin-3-yl)-5-methoxyaniline] | 50 to 250 nM | 2.5 to 20 nM | – |
| COc1cc2ncc(-c3cc(N)c(OC)c(OC)c3)n2cc1S(=O)(=O)C(C)(C)C [Example 47, 5-(6-(tert-butylsulfonyl)-7-methoxyimidazo[1,2-a]pyridin-3-yl)-2,3-dimethoxyaniline] | > 1000 nM | 2.5 to 20 nM | – |
| COc1cc2ncc(-c3cc(C)c(F)c(N)c3)n2cc1S(=O)(=O)C(C)(C)C [Example 48, 5-(6-(tert-butylsulfonyl)-7-methoxyimidazo[1,2-a]pyridin-3-yl)-2-fluoro-3-methylaniline] | > 1000 nM | – | > 20 nM |
| COCc1cc(N)cc(-c2cnc3cc(OC)c(S(=O)(=O)C(C)(C)C)cn23)c1 [Example 49, 3-(6-(tert-butylsulfonyl)-7-methoxyimidazo[1,2-a]pyridin-3-yl)-5-(methoxymethyl)aniline] | 250 to 1000 nM | – | > 20 nM |
| COc1cc2ncc(-c3cnc(OC(F)F)c(N)c3)n2cc1S(=O)(=O)C(C)(C)C [Example 50, 5-(6-(tert-butylsulfonyl)-7-methoxyimidazo[1,2-a]pyridin-3-yl)-2-(difluoromethoxy)pyridin-3-amine] | > 1000 nM | – | > 20 nM |
| COc1cc2ncc(-c3cc(N)c(OC)c(C#N)c3)n2cc1S(=O)(=O)C(C)(C)C [Example 51, 3-amino-5-(6-(tert-butylsulfonyl)-7-methoxyimidazo[1,2-a]pyridin-3-yl)-2-methoxybenzonitrile] | > 1000 nM | – | > 20 nM |
| COc1cc2ncc(-c3cc(F)c(OC)c(N)c3F)n2cc1S(=O)(=O)C(C)(C)C [Example 52, 3-(6-(tert-butylsulfonyl)-7-methoxyimidazo[1,2-a]pyridin-3-yl)-2,5-difluoro-6-methoxyaniline] | 250 to 1000 nM | 2.5 to 20 nM | – |
| COc1cc(-c2cnc3cc(OC)c(S(=O)(=O)C(C)(C)C)cn23)cc(N)n1 [Example 53, 4-(6-(tert-butylsulfonyl)-7-methoxyimidazo[1,2-a]pyridin-3-yl)-6-methoxypyridin-2-amine] | 50 to 250 nM | 2.5 to 20 nM | – |
| COc1cc2ncc(-c3cnc(OC)c(N)c3)n2cc1S(=O)(=O)C(C)(C)C [Example 54, 5-(6-(tert-butylsulfonyl)-7-methoxyimidazo[1,2-a]pyridin-3-yl)-2-methoxypyridin-3-amine] | > 1000 nM | – | > 20 nM |
| COc1cc2ncc(-c3cc(C)c(OC)c(Cl)n3)n2cc1S(=O)(=O)C(C)(C)C [Example 55, 6-(tert-butylsulfonyl)-3-(6-chloro-5-methoxy-4-methylpyridin-2-yl)-7-methoxyimidazo[1,2-a]pyridine] | > 1000 nM | – | > 20 nM |
| COc1cc2ncc(-c3cc(F)c(OC)c(C#N)c3)n2cc1S(=O)(=O)C(C)(C)C [Example 56, 5-(6-(tert-butylsulfonyl)-7-methoxyimidazo[1,2-a]pyridin-3-yl)-3-fluoro-2-methoxybenzonitrile] | > 1000 nM | – | > 20 nM |

| SMILES | IC50 [1] | IC50 [2] | IC50 [2, 3] |
| --- | --- | --- | --- |
| COc1cc2ncc(-c3cc(F)c(OC)c(F)c3)n2cc1S(=O)(=O)C(C)(C)C [Example 57, 6-(tert-butylsulfonyl)-3-(3,5-difluoro-4-methoxyphenyl)-7-methoxyimidazo[1,2-a]pyridine] | > 1000 nM | – | > 20 nM |
| COc1cc2ncc(-c3cc(F)c(OC)c(OC)c3)n2cc1S(=O)(=O)C(C)(C)C [Example 58, 6-(tert-butylsulfonyl)-3-(3-fluoro-4,5-dimethoxyphenyl)-7-methoxyimidazo[1,2-a]pyridine] | > 1000 nM | 2.5 to 20 nM | – |
| COc1cc2ncc(-c3cc(F)c(OC)c(CCO)c3)n2cc1S(=O)(=O)C(C)(C)C [Example 59, 2-(5-(6-(tert-butylsulfonyl)-7-methoxyimidazo[1,2-a]pyridin-3-yl)-3-fluoro-2-methoxyphenyl)ethan-1-ol] | 250 to 1000 nM | 2.5 to 20 nM | – |
| COc1cc2ncc(-c3csnc3OC)n2cc1S(=O)(=O)C(C)(C)C [Example 60, 4-(6-(tert-butylsulfonyl)-7-methoxyimidazo[1,2-a]pyridin-3-yl)-3-methoxyisothiazole] | > 1000 nM | 2.5 to 20 nM | – |
| COc1cc2ncc(-c3cc(F)cc(F)n3)n2cc1S(=O)(=O)C(C)(C)C [Example 61, 6-(tert-butylsulfonyl)-3-(4,6-difluoropyridin-2-yl)-7-methoxyimidazo[1,2-a]pyridine] | 250 to 1000 nM | – | > 20 nM |
| CCOc1ncc(-c2cnc3cc(OC)c(S(=O)(=O)C(C)(C)C)cn23)s1 [Example 62, 5-(6-(tert-butylsulfonyl)-7-methoxyimidazo[1,2-a]pyridin-3-yl)-2-ethoxythiazole] | > 1000 nM | – | > 20 nM |
| COc1cc2ncc(-c3cc(N)c(OCCO)c(F)c3)n2cc1S(=O)(=O)C(C)(C)C [Example 64, 2-(2-amino-4-(6-(tert-butylsulfonyl)-7-methoxyimidazo[1,2-a]pyridin-3-yl)-6-fluorophenoxy)ethan-1-ol] | 50 to 250 nM | 2.5 to 20 nM | – |
| COc1cc2ncc(-c3cc(N)c(OC(F)F)c(F)c3)n2cc1S(=O)(=O)C(C)(C)C [Example 65, 5-(6-(tert-butylsulfonyl)-7-methoxyimidazo[1,2-a]pyridin-3-yl)-2-(difluoromethoxy)-3-fluoroaniline] | 50 to 250 nM | 1 to 2.5 nM | – |
| CCOc1c(N)cc(-c2cnc3cc(OC)c(S(=O)(=O)C(C)(C)C)cn23)cc1F [Example 66, 5-(6-(tert-butylsulfonyl)-7-methoxyimidazo[1,2-a]pyridin-3-yl)-2-ethoxy-3-fluoroaniline] | > 1000 nM | – | > 20 nM |
| COc1cc2ncc(-c3ccc(N4CCCC4=O)nc3)n2cc1S(=O)(=O)C(C)(C)C [Example 67, 1-(5-(6-(tert-butylsulfonyl)-7-methoxyimidazo[1,2-a]pyridin-3-yl)pyridin-2-yl)pyrrolidin-2-one] | > 1000 nM | – | > 20 nM |
| COc1cc2ncc(-c3cnc(N)c(C)c3)n2cc1S(=O)(=O)C(C)(C)C [Example 68, 5-(6-(tert-butylsulfonyl)-7-methoxyimidazo[1,2-a]pyridin-3-yl)-3-methylpyridin-2-amine] | > 1000 nM | – | > 20 nM |
| CNc1ccc(-c2cnc3cc(OC)c(S(=O)(=O)C(C)(C)C)cn23)cn1 [Example 69, 5-(6-(tert-butylsulfonyl)-7-methoxyimidazo[1,2-a]pyridin-3-yl)-N-methylpyridin-2-amine] | > 1000 nM | – | > 20 nM |
| COc1cc2ncc(-c3ccc(N)cn3)n2cc1S(=O)(=O)C(C)(C)C [Example 71, 6-(6-(tert-butylsulfonyl)-7-methoxyimidazo[1,2-a]pyridin-3-yl)pyridin-3-amine] | > 1000 nM | – | > 20 nM |
| COc1cn2ncc(-c3ccc(N)nc3F)c2cc1S(=O)(=O)C(C)(C)C [Example 72, 5-(5-(tert-butylsulfonyl)-6-methoxypyrazolo[1,5-a]pyridin-3-yl)-6-fluoropyridin-2-amine] | > 1000 nM | – | > 20 nM |
| COc1cc2ncc(-c3cnc(N)c(F)c3)n2cc1S(=O)(=O)C(C)(C)C [Example 73, 5-(6-(tert-butylsulfonyl)-7-methoxyimidazo[1,2-a]pyridin-3-yl)-3-fluoropyridin-2-amine] | > 1000 nM | – | > 20 nM |
| COc1cc2ncc(-c3cc(OC)c(N)nc3F)n2cc1S(=O)(=O)C(C)(C)C [Example 74, 5-(6-(tert-butylsulfonyl)-7-methoxyimidazo[1,2-a]pyridin-3-yl)-6-fluoro-3-methoxypyridin-2-amine] | > 1000 nM | 2.5 to 20 nM | – |
| COc1cc2ncc(-c3cc(Cl)c(N)nc3F)n2cc1S(=O)(=O)C(C)(C)C [Example 75, 5-(6-(tert-butylsulfonyl)-7-methoxyimidazo[1,2-a]pyridin-3-yl)-3-chloro-6-fluoropyridin-2-amine] | 50 to 250 nM | 2.5 to 20 nM | – |

Source: patent US20250346593A1, “IMIDAZO(1,2-1)PYRIDINE DERIVATIVES AS RIPK2 INHIBITORS” (Interline Therapeutics, Inc., priority 2022, published 2025)
